What was measured:
[1] = test system: Du-145 cells; assay: MTT cytotoxicity assay, Du-145; type: cell-based, human
Method: (§1) Moreover, to investigate the activity of synthesized complexes as potential anticancer agents, their cytotoxicity toward a series of human cancer cell lines and a non-cancer cell line (HaCaT) was evaluated using the MTT assay. […] In addition, we also determined the cytotoxic activity of free ligands toward selected cancer cells. […] However, this effect depends on the cell line. […] The best values of cytotoxic activity of compounds have been obtained after 72 h of cell incubation. Additionally, synthesized complexes had high sensitivity to A549 cells, so this cell line was selected as the research subject for antitumor activity.
(§2) MCF7 cell line (human breast adenocarcinoma, morphology: epithelial-like, ATCC: HTB-22) and A549 cell line (human lung adenocarcinoma, morphology: epithelial, ATCC: CCL-185); HaCaT (human keratinocyte) were cultured in Dulbecco’s Modified Eagle’s Medium (DMEM, Corning, Poland) with phenol red, supplemented with 10% fetal bovine serum (FBS) and with 1% streptomycin/penicillin. Du-145 cell line (human prostate carcinoma); derived from metastatic site: brain was cultured in minimum essential medium (MEM, Corning) with only 10% fetal bovine serum (FBS). Cultures were incubated at 37 °C under a humidified atmosphere containing 5% CO2. Cells were passaged using a solution containing 0.05% trypsin and 0.5 mM EDTA. All media and other ingredients were purchased from ALAB, Poland.
(§3) Since most of the studied compounds are insoluble in aqueous media (Dulbecco’s Modified Eagle’s Medium or minimum essential medium (MEM, Corning), therefore, they needed to be pre-dissolved in DMSO for biological tests. DMSO concentration was kept below 1% in each tested concentration of each compound. […] In brief, 5×10^3 per well (0.2 mL) in the two first approaches, while 1×10^4 cells in the case of longer incubation time were seeded in 96-well flat-bottom microtiter plate, were incubated with the tested complexes at various ranges of concentrations. […] Various compound concentrations (dilutions in proper medium supplemented with 1% FBS) were tested in five replicates and repeated at least three times. Determined values of IC50 (concentration of a drug required to inhibit the growth of 50% of the cells) are given as mean + S.D. (Standard Deviation). IC50 values were determined, from the plots of cell viability in the presence of various concentrations of each compound by matching dose–response curves and using the Origin 9.0 software. Furthermore, post-treatment survival assessment of the treated cells was analyzed under an inverted fluorescence microscope (Olympus IC51, Japan) with an excitation filter 470/20 nm. For this, cells were stained with two versatile fluorescence dyes: fluorescein diacetate (FDA, 5 mg/mL) and propidium iodide (PI, 5 mg/mL) in standard conditions in the dark for 20 min. Before visualization, dyes were removed and cells were washed with PBS twice.

[2] = test system: PANC-1 cells; assay: MTT cytotoxicity assay, PANC-1; type: cell-based, human
[3] = test system: MCF-7 cells; assay: MTT cytotoxicity assay, MCF-7; type: cell-based, human
Method: as §1, §2, §3

[4] = test system: A549 cells; assay: MTT cytotoxicity assay, A549; type: cell-based, human
Method: as §1, §2
(§4) Since most of the studied compounds are insoluble in aqueous media (Dulbecco’s Modified Eagle’s Medium or minimum essential medium (MEM, Corning), therefore, they needed to be pre-dissolved in DMSO for biological tests. DMSO concentration was kept below 1% in each tested concentration of each compound. Cytotoxicity was assessed by MTT assay performed according to the protocols described previously in the following experimental approaches: 6 h + 24 h, 24 h + 24 h, and 72 h + 24 h. In brief, 5×10^3 per well (0.2 mL) in the two first approaches, while 1×10^4 cells in the case of longer incubation time were seeded in 96-well flat-bottom microtiter plate, were incubated with the tested complexes at various ranges of concentrations. After an appropriate incubation time of 6, 24, or 72 h, the cells were washed thee time with PBS and fresh medium was applied for a further 24 h in each approach. Various compound concentrations (dilutions in proper medium supplemented with 1% FBS) were tested in five replicates and repeated at least three times. Determined values of IC50 (concentration of a drug required to inhibit the growth of 50% of the cells) are given as mean + S.D. (Standard Deviation). IC50 values were determined, from the plots of cell viability in the presence of various concentrations of each compound by matching dose–response curves and using the Origin 9.0 software. Furthermore, post-treatment survival assessment of the treated cells was analyzed under an inverted fluorescence microscope (Olympus IC51, Japan) with an excitation filter 470/20 nm. For this, cells were stained with two versatile fluorescence dyes: fluorescein diacetate (FDA, 5 mg/mL) and propidium iodide (PI, 5 mg/mL) in standard conditions in the dark for 20 min. Before visualization, dyes were removed and cells were washed with PBS twice.

[5] = test system: PANC-1 cells; assay: MTT cytotoxicity assay, PANC-1; type: cell-based, human; remark: listed apart in the source
Method: as §1, §4

[6] = test system: HaCaT cells; assay: MTT cytotoxicity assay, HaCaT (non-cancer); type: cell-based, human
Method: as §1, §2, §4

[7] = test system: A549 cells; assay: MTT cytotoxicity assay, A549; type: cell-based, human; remark: listed apart in the source
[8] = test system: HaCaT cells; assay: MTT cytotoxicity assay, HaCaT (non-cancer); type: cell-based, human; settings: 48 h
[9] = Solubility (qualitative); type: physicochemical
[10] = Partition coefficient, shake-flask method (n-octanol/PBS); type: physicochemical
Method: The partition coefficient was determined by the shake-flask method. A small amount of compound was dissolved in 5 mL PBS-saturated n-octanol. The sample was sonicated until all the compound was dissolved. Next, 5 mL of PBS saturated with n-octanol was added and the experiment proceeded as before. The resulting mixture was vortexed for 30 min in horizontal position. The sample was centrifuged for 2 min at 3700 rpm to obtain a phase separation. Next, 2 mL of each phase was taken. The next steps were a 5 min sonication and measurement of absorption spectra of the obtained solutions. The calibration curve was prepared in order to determine the concentration of the tested compounds in individual solutions. It was made using the absorption intensity of the compounds in series dilution solutions in PBS saturated with octanol or octanol saturated with PBS in the concentration range c = 1–100 nM.

[11] = Stability towards atmospheric oxygen (UV-Vis); type: physicochemical
Method: Oxidation of copper(I) to copper(II) was observed within 12 h using UV-Vis spectroscopy (Figure 1) that was additionally conformed by color of the copper(I) inorganic compound solution changing from transparent to green. Additionally, oxidation of phosphines ligands (1, 2) was observed. It is worth mentioning that copper(I) ions can easily undergo oxidation processes. The instability of copper(I) complexes prevented us from evaluating their biological activity.

Compound | IC50 ([1]; Homo sapiens, DU-145, 72 h) | IC50 ([3]; Homo sapiens, MCF7, 48 h) | IC50 ([3]; Homo sapiens, MCF7, 72 h) | IC50 ([4]; Homo sapiens, A549, 72 h) | IC50 ([5]; Homo sapiens, PANC-1, 72 h) | IC50 ([6]; Homo sapiens, HaCaT, 72 h) | IC50 ([7]; Homo sapiens, A549, 48 h) | IC50 ([8]; Homo sapiens, HaCaT) | IC50 ([1]; 24 h) | IC50 ([1]; 48 h) | IC50 ([1]; 72 h) | IC50 ([2]; 48 h) | IC50 ([3]; 24 h) | IC50 ([3]; 48 h) | IC50 ([3]; 72 h) | IC50 ([4]; 72 h) | IC50 ([5]; 72 h) | IC50 ([6]; 72 h) | IC50 ([7]; 48 h) | IC50 [8] | further results
CCCCNCCCC [dibutylamine] | > 1000 µM | 226 ± 20 µM | > 1000 µM | > 1000 µM | > 1000 µM | > 1000 µM | 387 ± 25 µM | 445 ± 25 µM |  |  |  |  |  |  |  |  |  |  |  |  | IC50 ([1]; Homo sapiens, DU-145, 48 h): 103 ± 7 µM; IC50 ([2]; Homo sapiens, PANC-1, 48 h): 258 ± 6 µM
N.N.[Cl][Pt][Cl] [Cisplatin, reference compound] |  |  |  |  |  |  |  |  | 85 ± 7 µM | 81 ± 8 µM | 50 ± 2 µM | 131 ± 7 µM | 176 ± 5 µM | 151 ± 6 µM | 64 ± 4 µM | 11 ± 3 µM | 79 ± 5 µM | 102 ± 2 µM | 66 ± 9 µM | 362 ± 4 µM | IC50 ([4]; 24 h): 70 ± 8 µM; IC50 ([5]; 24 h): 166 ± 20 µM; IC50 ([6]; 24 h): 400 ± 3 µM
Ru(η^6-p-cymene)Cl2Ph2PCH2N(CH2CH2CH2CH3)2 [2b] |  |  |  |  |  |  |  |  | 102 ± 6 µM | 103 ± 7 µM | 17 ± 3 µM | 258 ± 6 µM | 226 ± 20 µM | 226 ± 20 µM | 121 ± 20 µM | 14 ± 2 µM | 112 ± 18 µM | 347 ± 25 µM | 387 ± 25 µM | 445 ± 25 µM | solubility in mixture of H2O:DMSO (100:1) [9]: well soluble; IC50 ([4]; 24 h): 81 ± 4 µM; IC50 ([5]; 24 h): 126 ± 6 µM; IC50 ([6]; 24 h): 545 ± 13 µM; Experimental LogP (logPo/w) [10]: 3.84
CCCCN(CCCC)C[P+](c1ccccc1)(c1ccccc1)[Ir-3]([Cl])([Cl])[C]1(C)C(C)=C(C)C(C)=C1C [2a, Ir(η^5-Cp*)Cl2Ph2PCH2N(CH2CH2CH2CH3)2] |  |  |  |  |  |  |  |  | 69 ± 6 µM | 69 ± 8 µM | 13 ± 2 µM | 198 ± 20 µM | 125 ± 15 µM | 189 ± 20 µM | 56 ± 6 µM | 16 ± 3 µM | 85 ± 16 µM | 302 ± 22 µM | 61 ± 3 µM | 420 ± 12 µM | IC50 ([4]; 24 h): 79 ± 6 µM; IC50 ([5]; 24 h): 106 ± 5 µM; IC50 ([6]; 24 h): 559 ± 25 µM; Experimental LogP (logPo/w) [10]: 4.0
CCN(CC)CP(c1ccccc1)c1ccccc1 [compound 1, Ph2PCH2N(CH2CH3)2] | 86 ± 6 µM | 149 ± 13 µM | 192 ± 20 µM | 183 ± 12 µM | 185 ± 12 µM | 490 ± 12 µM | 47 ± 5 µM | 458 ± 20 µM |  |  |  |  |  |  |  |  |  |  |  |  | IC50 ([1]; Homo sapiens, DU-145, 24 h): 203 ± 19 µM; solubility in H2O [9]: moderately; IC50 ([3]; Homo sapiens, MCF7, 24 h): 458 ± 11 µM; IC50 ([4]; Homo sapiens, A549, 24 h): 620 ± 9 µM; sensitivity to oxidation in solution [11]: extremely sensitive to oxidation in solution; IC50 ([5]; Homo sapiens, PANC-1, 24 h): 426 ± 7 µM; IC50 ([6]; Homo sapiens, HaCaT, 24 h): 646 ± 20 µM
CCNCC [diethylamine] |  |  |  |  |  |  |  |  |  | 126 ± 12 µM | > 1000 µM | 305 ± 13 µM |  | 352 ± 25 µM | > 1000 µM | > 1000 µM | > 1000 µM | > 1000 µM | 425 ± 38 µM | 545 ± 33 µM | 
CC#N.CC#N.CCCCN(CCCC)CP(c1ccccc1)c1ccccc1.CCCCN(CCCC)CP(c1ccccc1)c1ccccc1.F[B-](F)(F)F.[Cu+] [2c, [Cu(NCCH3)2(Ph2PCH2N(CH2CH2CH2CH3)2)2]^+BF4^−] |  |  |  |  |  |  |  |  |  |  |  |  |  |  |  |  |  |  |  |  | solubility in mixture of H2O:DMSO (100:1) [9]: well soluble
CCCCN(CCCC)CP(c1ccccc1)c1ccccc1 [compound 2, Ph2PCH2N(CH2CH2CH2CH3)2] | 57 ± 4 µM | 125 ± 20 µM | 285 ± 11 µM | 158 ± 11 µM | 142 ± 20 µM | 448 ± 25 µM | 72 ± 6 µM | 420 ± 11 µM |  |  |  |  |  |  |  |  |  |  |  |  | IC50 ([1]; Homo sapiens, DU-145, 24 h): 185 ± 12 µM; IC50 ([1]; Homo sapiens, DU-145, 48 h): 54 ± 8 µM; solubility in H2O [9]: moderately; IC50 ([2]; Homo sapiens, PANC-1, 48 h): 158 ± 23 µM; IC50 ([3]; Homo sapiens, MCF7, 24 h): 355 ± 13 µM; IC50 ([4]; Homo sapiens, A549, 24 h): 569 ± 11 µM; sensitivity to oxidation in solution [11]: extremely sensitive to oxidation in solution; IC50 ([5]; Homo sapiens, PANC-1, 24 h): 386 ± 6 µM; IC50 ([6]; Homo sapiens, HaCaT, 24 h): 556 ± 13 µM
CC#N.CC#N.CCN(CC)CP(c1ccccc1)c1ccccc1.CCN(CC)CP(c1ccccc1)c1ccccc1.F[B-](F)(F)F.[Cu+] [1c, [Cu(NCCH3)2(Ph2PCH2N(CH2CH3)2)2]^+BF4^−] |  |  |  |  |  |  |  |  |  |  |  |  |  |  |  |  |  |  |  |  | solubility in mixture of H2O:DMSO (100:1) [9]: well soluble

From paper PMC8876511, “Two out of Three Musketeers Fight against Cancer: Synthesis, Physicochemical, and Biological Properties of Phosphino Cu^I, Ru^II, Ir^III Complexes” (Pharmaceuticals, 2022)
